In general, inhibition refers to the relative decrease from the control value, in per cent. One may read the IC50 as the midpoint of a concentration-inhibition curve.

Results on 14 compounds are retold here after article PMC6267619, “Isolation of Betulinic Acid, its Methyl Ester and Guaiane Sesquiterpenoids with Protein Tyrosine Phosphatase 1B Inhibitory Activity from the Roots of Saussurea lappa C.B.Clarke” (Molecules, 2008).

Converted amounts (≈) assume the structure as drawn. “And” between values parts separate entries of the source, which are not always exact repeats. Identical values can stand only once.

The target in this assay is T1, PTP1B (human, recombinant) (Homo sapiens, UniProt P18031).
T1 construct: purchased BIOMOL International LP (Plymouth Meeting, PA)
T1 sequence (P18031 1-435): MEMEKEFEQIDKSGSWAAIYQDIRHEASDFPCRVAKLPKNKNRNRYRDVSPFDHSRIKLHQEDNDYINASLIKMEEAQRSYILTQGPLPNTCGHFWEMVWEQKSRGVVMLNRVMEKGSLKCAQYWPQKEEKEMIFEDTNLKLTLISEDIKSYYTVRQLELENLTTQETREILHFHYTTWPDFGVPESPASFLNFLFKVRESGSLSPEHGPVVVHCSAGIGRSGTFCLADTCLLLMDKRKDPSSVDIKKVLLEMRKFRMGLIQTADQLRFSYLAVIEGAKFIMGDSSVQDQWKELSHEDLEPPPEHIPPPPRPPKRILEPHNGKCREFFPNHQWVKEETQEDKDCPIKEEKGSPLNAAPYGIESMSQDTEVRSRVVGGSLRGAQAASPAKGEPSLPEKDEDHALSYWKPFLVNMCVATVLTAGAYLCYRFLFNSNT
In words: PTP1B inhibition assay with pNPP as substrate. In kind it is biochemical. The following applies: for inhibition at 30 µg/mL / Inhibition % of PTP1B activity: at 30 μg/mL; for IC50: read-out: IC50 (PTP1B inhibitory activity) (converted). As to the method:
PTP1B (human, recombinant) was purchased from BIOMOL® International LP (Plymouth Meeting, PA). The enzyme activity was measured using p-nitrophenyl phosphate (pNPP) as a substrate. To each of 96 wells in a microtiter plate (final volume: 100 μL) was added 2 mM pNPP and PTP1B (0.05-0.1 μg) in a buffer containing 50 mM citrate (pH 6.0), 0.1 M NaCl, 1 mM EDTA, and 1 mM dithiothreitol (DTT) with or without test compounds. Following incubation at 37°C for 30 min, the reaction was terminated with 10 M NaOH. The amount of produced p-nitrophenol was estimated by measuring the absorbance at 405 nm. The non-enzymatic hydrolysis of 2 mM pNPP was corrected by measuring the increase in absorbance at 405 nm obtained in the absence of PTP1B enzyme.

Where [1] appears, read: na = not active (less than 50% inhibition at the level of 30 μg/mL).

Regarding `CC[C@H](CC[C@@H](C)[C@H]1CC[C@H]2[C@@H]3CC=C4C[C@@H](O)CC[C@]4(C)[C@H]3CC[C@]12C)C(C)C` [Compound 11, β-sitosterol], the inhibition at 30 µg/mL is < 50%.

Regarding `C=C1C(=O)O[C@@H]2[C@H]3C(C)=CC[C@@H](O)[C@]3(C)CC[C@@H]12` [Compound 9, santamarine], the inhibition at 30 µg/mL was < 50%.

As to `C=C1CC[C@H]2C(=C)CC[C@@H]3[C@H](OC(=O)[C@H]3C)[C@@H]12` [Compound 3, mokko lactone], the inhibition at 30 µg/mL stood at 93.1%. In addition, the IC50 under setting [1] is 6.07 µM and 6.03 µM.

Take `C=CCCCCC/C=C\C/C=C\C/C=C\CC` [Compound 12, aplotaxene]: the “Inhibition % of PTP1B activity” value is < 50.0%.

For the compound `C=C(C)[C@@H]1CC[C@]2(C(=O)O)CC[C@]3(C)[C@H](CC[C@@H]4[C@@]5(C)CC[C@H](O)C(C)(C)[C@@H]5CC[C@]43C)[C@@H]12` [Compound 1, betulinic acid], the inhibition at 30 µg/mL came to 95.1%. Besides, the IC50 under setting [1] was 1.53 µM.

Regarding `C=C1C(=O)O[C@@H]2/C=C(\C)CC/C=C(\C)CC[C@@H]12` [Compound 5, costunolide], the inhibition at 30 µg/mL was < 50%.

Consider `C[C@H]1[C@H](C)CC[C@]2(C(=O)O)CC[C@]3(C)C(=CC[C@@H]4[C@@]5(C)CC[C@H](O)C(C)(C)[C@@H]5CC[C@]43C)[C@H]12` [Ursolic acid, reference compound], for which the inhibition at 30 µg/mL was 99%.

Consider `C=C(C)[C@@H]1CC[C@]2(C(=O)OC)CC[C@]3(C)[C@H](CC[C@@H]4[C@@]5(C)CC[C@H](O)C(C)(C)[C@@H]5CC[C@]43C)[C@@H]12` [Compound 2, betulinic acid methyl ester], for which the inhibition at 30 µg/mL came out at 89.4%. Moreover, the IC50 under setting [1] is 1.98 µM and 1.91 µM.

In the case of `C/C1=C\[C@H]2OC(=O)[C@@H](C)[C@@H]2CC/C(C)=C/CC1` [Compound 6, 11β,13-dihydrocostunolide], the inhibition at 30 µg/mL was < 50%.

With `C=C1C(=O)O[C@@H]2[C@@H]3[C@@](C)(CC[C@@H]12)[C@H](O)CC[C@@]3(C)O` [Compound 8, 1β-hydroxy arbusculin A], the inhibition at 30 µg/mL was < 50%.

For the compound `CCCCCCCCCCCCCCCC(=O)C1=C(O)C(CO)OC1=O` (stereo not shown) [RK-682, reference compound], the “Inhibition % of PTP1B activity” value is 98.5%. Besides, the “IC50 (PTP1B inhibitory activity)” value under setting [1] was found to be 1.2 ± 0.09 µg/mL (≈ 3.26 µM).

As to `C=C1CC[C@@H](O)[C@]2(C)CC[C@H]3C(=C)C(=O)O[C@@H]3[C@@H]12` [Compound 7, reynosin], the inhibition at 30 µg/mL is < 50%.

Regarding `C=C1CC[C@H]2C(=C)CC[C@H]3C(=C)C(=O)O[C@@H]3[C@@H]12` [Compound 4, dehydrocostuslactone], the inhibition at 30 µg/mL is 86.2%. Under setting [1], the IC50 was 28.3 µM and 28.2 µM.

With `CCCCCCCCCCCCCCCCCC(=O)O[C@H]1CC[C@]2(C)[C@H]3CC=C4[C@@H]5[C@@H](C)[C@H](C)CC[C@]5(C)CC[C@@]4(C)[C@]3(C)CC[C@H]2C1(C)C` [Compound 13, α-amyrin stearate], the “Inhibition % of PTP1B activity” value is reported as < 50.0%.
